Data: PubChem BioAssay AID2060490 (Molecular Pharmacology Branch, DTP, NCI, 2025)

Test system: 885512-296-R-J2-PDC complex spheroid viability
Assay: Anticancer human tumor 885512-296-R-J2-PDC patient-derived breast carcinoma cell line growth inhibition [GQUAD]
Conditions: for IC50: curve of first compound; for viability, T/C: stronger effect = lower value
How it was run: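 Tumor cells were grown as complex spheroids with HUVEC endothelial cells and mesenchymal stem cells as stroma. G-quadruplex stabilizers were combined with targeted agents over half-log dilutions from near the clinical Cmax, or from 10 microM.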
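Further: spheroids exposed to the compounds for one week.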
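Wherever viability, T/C is given: percent of tumor spheroid viability relative to DMSO vehicle control wells.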

`Cc1cccc(N(C)C(=O)C2C(O)CCN2c2nc(C)cc(C(F)(F)F)c2C#N)c1` (configuration not stated) + CN(C)c1ccc(Nc2c3ccc(NC(=O)CCN4CCCC4)cc3nc3cc(NC(=O)CCN4CCCC4)ccc23)cc1 was tested, and the IC50 (second compound 0.0316 µM) was over 10 µM, the IC50 (second compound 0.1 µM) was over 10 µM and the IC50 (second compound 0.316 µM) was over 10 µM. The IC50 (second compound 1 µM) was over 10 µM, the IC50 (second compound 3.16 µM) was over 10 µM and the IC50 (second compound 10 µM) was under 0.0316 µM. For the same compound, the viability, T/C (second compound 0.0316 µM, first compound 0.0316 µM) was 101%, the viability, T/C (second compound 0.0316 µM, first compound 0.1 µM) was 89.8% and the viability, T/C (second compound 0.0316 µM, first compound 0.316 µM) was 106%. The viability, T/C (second compound 0.0316 µM, first compound 1 µM) was 102%, the viability, T/C (second compound 0.0316 µM, first compound 3.16 µM) was 113% and the viability, T/C (second compound 0.0316 µM, first compound 10 µM) was 97.7%. For the same compound, the viability, T/C (second compound 0.1 µM, first compound 0.0316 µM) was 110%, the viability, T/C (second compound 0.1 µM, first compound 0.1 µM) was 106% and the viability, T/C (second compound 0.1 µM, first compound 0.316 µM) was 102%. It also gave a viability, T/C (second compound 0.1 µM, first compound 1 µM) of 87.3%, a viability, T/C (second compound 0.1 µM, first compound 3.16 µM) of 104% and a viability, T/C (second compound 0.1 µM, first compound 10 µM) of 91.7%. It also gave a viability, T/C (second compound 0.316 µM, first compound 0.0316 µM) of 111%, a viability, T/C (second compound 0.316 µM, first compound 0.1 µM) of 99.6% and a viability, T/C (second compound 0.316 µM, first compound 0.316 µM) of 106%. For the same compound, the viability, T/C (second compound 0.316 µM, first compound 1 µM) was 97.8%, the viability, T/C (second compound 0.316 µM, first compound 3.16 µM) was 101% and the viability, T/C (second compound 0.316 µM, first compound 10 µM) was 96.8%. The viability, T/C (second compound 1 µM, first compound 0.0316 µM) was 88.5%, the viability, T/C (second compound 1 µM, first compound 0.1 µM) was 105% and the viability, T/C (second compound 1 µM, first compound 0.316 µM) was 95.1%. The viability, T/C (second compound 1 µM, first compound 1 µM) was 93.2%, the viability, T/C (second compound 1 µM, first compound 3.16 µM) was 84.6% and the viability, T/C (second compound 1 µM, first compound 10 µM) was 80.8%. The viability, T/C (second compound 3.16 µM, first compound 0.0316 µM) was 94.8%, the viability, T/C (second compound 3.16 µM, first compound 0.1 µM) was 96.5% and the viability, T/C (second compound 3.16 µM, first compound 0.316 µM) was 108%. It also gave a viability, T/C (second compound 3.16 µM, first compound 1 µM) of 86.8%, a viability, T/C (second compound 3.16 µM, first compound 3.16 µM) of 96.2% and a viability, T/C (second compound 3.16 µM, first compound 10 µM) of 62.2%. For the same compound, the viability, T/C (second compound 10 µM, first compound 0.0316 µM) was 23.6%, the viability, T/C (second compound 10 µM, first compound 0.1 µM) was 22.4% and the viability, T/C (second compound 10 µM, first compound 0.316 µM) was 18.6%. The viability, T/C (second compound 10 µM, first compound 1 µM) was 19.3%, the viability, T/C (second compound 10 µM, first compound 3.16 µM) was 15.8% and the viability, T/C (second compound 10 µM, first compound 10 µM) was 5.88%.
